Assay results taken from patent US20230218559A1, “Compositions and Methods for Treating Aging and Age-Related Diseases and Symptoms” (The Regents of the University of California, priority 2014, published 2023).

What was measured:
[1] = tested on: electron transport chain (Complex I, Complex II, Complex IV); test: Mitochondrial electron flow assay; format: biochemical, mouse
Procedure: Mitochondria were isolated from mouse liver as described above.
For the electron flow assay, the MAS buffer was supplemented with 10 mM sodium pyruvate (Complex I substrate), 2 mM malate (Complex II inhibitor), and 4 μM FCCP, and the mitochondria are seeded the same way as described for the coupling assay. After basal readings, the sequential injections were as follows: 2 μM rotenone (Complex I inhibitor), 10 mM succinate (Complex II substrate), 4 μM antimycin A (Complex III inhibitor), and 10 mM/100 μM ascorbate/tetramethylphenylenediamine (Complex IV substrate).

[2] = molecular target: T1, ATP synthase (Complex V) (Mus musculus, UniProt P56480); test: Mitochondrial coupling assay / respiratory control ratio; format: biochemical; details: mouse liver mitochondria
T1 construct: Mitochondria were isolated from mouse liver as described above; from tissue; host or cells: isolated mouse liver mitochondria
Procedure: Mitochondrial RCR was analyzed using isolated mouse liver mitochondria (see Brand, et al. Biochem J 435, 297-312 (2011) and references therein). Mitochondria were isolated from mouse liver as described above. The final mitochondrial pellet was resuspended in 30 μl of MAS buffer (70 mM sucrose, 220 mM mannitol, 10 mM KH2PO4, 5 mM MgCl2, 2 mM HEPES, 1 mM EGTA, and 0.2% fatty acid free BSA, pH 7.2).
Isolated mitochondrial respiration was measured by running coupling and electron flow assays as described (Rogers, et al. PLoS One 6, e21746 (2011)). For the coupling assay, 20 μg of mitochondria in complete MAS buffer (MAS buffer supplemented with 10 mM succinate and 2μM rotenone) were seeded into a XF24 Seahorse plate by centrifugation at 2,000×g for 20 minutes at 4° C. […] Mitochondrial respiration begins in a coupled State 2; State 3 is initiated by 2 mM ADP; State 4o (oligomycin-insensitive, i.e., Complex V-independent) is induced by 2.5 μM oligomycin and State 3u (FCCP uncoupled maximal respiratory capacity) by 4 μM FCCP. Finally, 1.5 μg/ml antimycin A was injected at the end of the assay.

[3] = tested on: C. elegans; test: C. elegans lifespan analysis; format: in vivo, Caenorhabditis elegans; details: for mean lifespan: 8 mM; for effect on lifespan of adult C. elegans (in words): adult worms, metabolites at 8 mM; for lifespan of subjects (in words): experiments similar to those for α-KG and 2-HG compounds, data not shown
Procedure: Lifespan assays were conducted at 20° C. on solid nematode growth media (NGM) using standard protocols and were replicated in at least two independent experiments. […] All compounds were mixed into the NGM media after autoclaving and before solidification of the media. Assay plates were seeded with OP50 (or a designated RNAi feeding clone, see below). Worms were moved to new assay plates every 4 days (to ensure sufficient food was present at all times and to reduce the risk of mold contamination). […] For analysis concerning mutant strains, the corresponding parent strain was used as a control in the same experiment. […]
Lifespan data is provided in FIG. 13, including sample sizes. The sample size was chosen on the basis of standards done in the field in published manuscripts. No statistical method was used to predetermine the sample size. Animals were assigned randomly to the experimental groups. […] Lifespan data were analyzed using GraphPad Prism; P-values were calculated using the log-rank (Mantel-Cox) test.

[4] = molecular target: T2, ATP5B (Homo sapiens, UniProt P06576); test: DARTS (drug affinity responsive target stability) with Western blotting; format: binding; details: human cell lysates, Pronase digestion
T2 construct: HeLa cells were lysed in M-PER buffer; endogenous in cells; host or cells: HeLa (alpha-KG); U87 (2-HG)
T2 sequence (P06576 48-529): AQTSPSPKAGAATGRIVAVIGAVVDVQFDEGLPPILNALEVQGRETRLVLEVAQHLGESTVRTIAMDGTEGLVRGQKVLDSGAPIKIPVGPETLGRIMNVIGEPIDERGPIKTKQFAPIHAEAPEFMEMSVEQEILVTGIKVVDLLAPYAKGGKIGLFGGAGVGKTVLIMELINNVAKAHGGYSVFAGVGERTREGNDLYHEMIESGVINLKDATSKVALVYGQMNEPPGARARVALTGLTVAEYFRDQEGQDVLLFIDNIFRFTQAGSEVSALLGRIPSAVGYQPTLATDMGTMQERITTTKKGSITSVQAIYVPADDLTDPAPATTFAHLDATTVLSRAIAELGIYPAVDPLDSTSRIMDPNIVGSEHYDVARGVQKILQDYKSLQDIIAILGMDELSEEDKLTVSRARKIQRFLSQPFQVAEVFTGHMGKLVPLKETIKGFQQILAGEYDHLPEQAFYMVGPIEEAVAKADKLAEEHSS
Procedure: Target identification using DARTS was conducted in accordance with methods know in the art. […] The resulting digests were separated by SDS-PAGE and visualized using SYPRO Ruby Protein Gel Stain (Invitrogen, S12000).
GAPDH (Ambion, AM4300) was used as a negative control.
For 2-HG experiments, DARTS was performed as described above.

[5] = tested on: U87 cells
Procedure: Cells were cultured for 24 hours, rinsed with PBS, and medium containing [1,2-^13C]glucose (1 g/L) added. […] Cells were scraped off, transferred to an Eppendorf tube, and 10 nmol norvaline as well as 400 ml chloroform added to each sample. For the metabolite extraction, samples were vortexed for 5 minutes on ice, spun down, and the aqueous layer transferred into a glass vial and dried. Metabolites were resuspended in 70% ACN, and 5 ml sample loaded onto a Phenomenex Luna 3u NH2 100A (150×2.0 mm) column. The chromatographic separation was performed on an UltiMate 300RSLC (Thermo Scientific) with mobile phases A (5 mM NH4AcO, pH 9.9) and B (ACN) and a flow rate of 300 ml / minutes. […] TraceFinder 3.1 (Thermo Scientific) was used to quantify metabolites as area under the curve using retention time and accurate mass measurements (≤3 ppm). Relative amounts of metabolites were calculated by summing up all isotopomers of a given metabolite.

[6] = tested on: U87 cells; test: Cell growth and viability assays in U87 cells; format: cell-based, human
Procedure: IDH1(R132H) mutant or IDH1(WT) expressing U87 cells were as reported (Li, et al. Neuro Oncol 15, 57-68). […] All the cells were cultured at 37° C. and 5% CO2. Cells were transfected with indicated siRNA using Thermo Scientific DharmaFECT Transfection Reagent 1 by following the manufacturer's instructions.
Cells were seeded in 12-well plates and after overnight incubation were treated with indicated concentrations of each compound. After harvesting, cells were stained by Acridine Orange (AO) and DAPI. Cell number and viability were measured based on AO and DAPI fluorescence measured by NC3000 (Chemometec) following the manufacturer's instructions.

[7] = tested on: U87 cells; test: Oxygen consumption rate in U87 cells (2-HG experiments); format: cell-based, human
Procedure: For 2-HG experiments, OCR and ECAR measurements were made using a Seahorse XF-24 analyzer (Seahorse Bioscience) (Wu, et al. Am J Physiol Cell Physiol 292, C125-136 (2007)). U87 cells were seeded in Seahorse XF-24 cell culture microplates at 50,000 cells per well in DMEM supplemented with 10% FBS and either 10 mM glucose or 10 mM galactose, and incubated 0/N at 37° C. in 5% CO2. […] Cells were washed in unbuffered DMEM (pH 7.4, 10 mM glucose) immediately prior to measurement, and maintained in this buffer with indicated concentrations of compound. OCR or ECAR were measured 3 times under basal conditions and normalized to protein concentration per well. Statistical analysis was performed using GraphPad Prism (unpaired t-test, two-tailed, two-sample unequal variance).

[8] = tested on: U87 cells; test: Assay for ATP levels in U87 cells; format: cell-based, human; details: mitochondrial oxidative phosphorylation conditions, 2 hours
Procedure: For 2-HG experiments, U87 cells were seeded in 96-well plates at 2×10^4 cells per well and treated with indicated compound for 2 hours in triplicate. ATP levels were measured using the CellTiter-Glo luminescent ATP assay (Promega, G7572); luminescence was read using Analyst HT (Molecular Devices). […] Statistical analysis was performed using GraphPad Prism (unpaired t-test).

[9] = tested on: ADP import into the mitochondria; test: Assay for ADP import; format: biochemical; details: mouse liver mitochondria, 600 μM; (R) P=0.4237, (S) P=0.1623
Procedure: Freshly prepared mice liver mitochondria were suspended at 1 μg/μl in medium consisting of 220 mM mannitol, 70 mM sucrose, 2 mM HEPES, 2.74 μM antimycin A, 5 μM rotenone, 1 mM
EGTA, and 10 mM potassium phosphate buffer, pH 7.4. The mitochondria suspension was incubated with designated drug for 30 minutes in 37° C. After incubation, the suspension was transferred to ice for 10 minutes incubation. Afterwards, 100 μM [^3H]ADP (specific radioactivity, 185 kBq/pmol) was added, and the mixture was immediately vortexed and incubated for 20 seconds on ice. The reaction was terminated by addition of 10 μM carboxyatractyloside, and the mixture was centrifuged at 10,000 g for 10 minutes at 4° C. After centrifuge, the supernatant was collected for reading and the pellet was washed twice with the same medium supplemented with 10 μM carboxyatractyloside. After washing, the pellet was lysed by the addition of 0.2 ml of 1% SDS. The radioactivity of the lysate and supernatant was determined by TRI-CARB 2300 TR liquid scintillation analyzer. The ADP-ATP translocation rate was determined by the ratio of the pellet versus the sum reading of the pellet and supernatant.

[10] = tested on: AMPK; test: AMPK (T172) phosphorylation by Western blotting; format: cell-based, human; details: WI-38 cells; higher concentration of octyl α-KG
Procedure: Western blotting was performed with specific antibodies against P-AMPK T172 (Cell Signaling Technology, 2535S) and AMPK (Cell Signaling Technology, 2603S). […] Number of GFP::LGG-1 containing puncta was quantitated using ImageJ. Bars indicate the mean. […] HEK-293 (Panel d) or HeLa (Panel e) cells were lysed in M-PER buffer (Thermo Scientific, 78501) with the addition of protease inhibitors (Roche, 11836153001) and phosphatase inhibitors (50 mM NaF, 10 mM β-glycerophosphate, 5 mM sodium pyrophosphate, 2 mM Na3VO4). Protein concentration of the lysate was measured by BCA Protein Assay kit (Pierce, 23227). […] Pronase (Roche, 10165921001) digestions were performed for 20 minutes at room temperature, and stopped by adding SDS loading buffer and immediately heating at 95° C. for 5 minutes (for Panel d) or 70° C. for 10 minutes (for Panel e). Samples were subjected to SDS-PAGE on 4-12% Bis-Tris gradient gel (Invitrogen, NP0322BOX) and Western blotted with specific antibodies against ATP5B (Santa Cruz, sc58618), mTOR (Cell Signaling Technology, 2972), or GAPDH (Ambion, AM4300). ImageJ was used to quantify the mTOR/GAPDH and ATP5B/GAPDH ratios.

[11] = tested on: C. elegans; test: Assay for autophagy in C. elegans (GFP::LGG-1 puncta); format: in vivo, Caenorhabditis elegans
Procedure: Statistical analysis was performed using Microsoft Excel (t-test, two-tailed, two-sample unequal variance).

[12] = tested on: mTOR; test: Assay for mammalian TOR (mTOR) pathway activity; format: cell-based, human; details: U87 cells
From the text: Specific antibodies used: P-S6K T389 (Cell Signaling Technology, 9234), S6K (Cell Signaling Technology, 9202S), P-4E-BP1 S65 (Cell Signaling Technology, 9451S), 4E-BP1 (Cell Signaling Technology, 9452S), P-AKT S473 (Cell Signaling Technology, 4060S), AKT (Cell Signaling Technology, 4691S), P-ULK1 S757 (Cell Signaling Technology, 6888), ULK1 (Cell Signaling Technology, 4773S), and GAPDH (Santa Cruz Biotechnology, 25778).

CCCCCCCCOC(=O)CCC(=O)C(=O)O [5-octyl α-KG, 5-(Octyloxy)-2,5-dioxopentanoic acid]
electron flow assay, 1-octyl versus 5-octyl ester ([1]; mouse liver mitochondria): identical results
coupling assay, 1-octyl versus 5-octyl ester [2]: identical results

O=C(O)CC[C@@H](O)C(=O)O [(R)-2-HG, 2-hydroxyglutaric acid]
mean lifespan ([3]; FIG. 14 Panel B, vehicle 14.0): 20.0 days of adulthood
effect on lifespan of adult C. elegans (in words) [3]: increase the lifespan
binding to ATP5B by DARTS [4]: bind

O=C(O)CC[C@H](O)C(=O)O [(S)-2-HG, 2-hydroxyglutaric acid]
mean lifespan ([3]; FIG. 14 Panel C, vehicle 15.7): 20.7 days of adulthood
effect on lifespan of adult C. elegans (in words) [3]: increase the lifespan
binding to ATP5B by DARTS [4]: bind

N[C@H](CCC(=O)O)C(=O)O [D-glutamate]
lifespan of subjects (in words) [3]: increases the lifespan

N[C@@H](CCC(=O)O)C(=O)O [L-glutamate]
lifespan of subjects (in words) [3]: increases the lifespan

CC(C)C[C@H](N)C(=O)O [Leu]
mean lifespan ([3]; FIG. 14 Panel B, vehicle 14.0): 13.2 days of adulthood

CSCC[C@H](N)C(=O)O [Met]
mean lifespan ([3]; FIG. 14 Panel B, vehicle 14.0): 14.7 days of adulthood

O=C([O-])CCC(=O)C(=O)[O-].[Na+].[Na+] [Na2α-KG]
mean lifespan ([3]; FIG. 14 Panel C, vehicle 15.7): 21.5 days of adulthood

CCCCCCCCOC(=O)C(O)CCC(=O)O (stereo not drawn) [octyl 2-HG]
accumulation of 2-HG in treated cells [5]: 20-100 fold
growth rate ([6]; glucose medium, to a lesser extent, not shown): reduced
growth rate ([6]; glucose-free medium, 400 μM and 800 μM): decreased growth rate
Complex I, Complex II, or Complex IV respiration ([1]; 30 minute treatment, 600 μM): No difference
state 3 respiration ([2]; 600 μM, octanol vehicle): decreases
state 4o or 3u respiration ([2]; 600 μM, octanol vehicle): not
ATP synthase dependent (oligomycin sensitive) oxygen consumption rate ([7]; U87 cells): decreased
respiration as indicated by OCR ([7]; U87 cells in glucose media): decreased
ATP content [8]: decreased

CCCCCCCCOC(=O)[C@H](O)CCC(=O)O [octyl (R)-2-HG, 1-Octyl (R) 2-hydroxypentanedioate]
viability upon glucose starvation ([6]; 400 μM and 800 μM): decreased
ADP import [9]: does not affect

CCCCCCCCOC(=O)[C@@H](O)CCC(=O)O [octyl (S)-2-HG, 1-Octyl (S) 2-hydroxypentanedioate]
viability upon glucose starvation ([6]; 400 μM and 800 μM): decreased
ADP import [9]: does not affect

CC[C@H]1/C=C/C=C/C[C@@H](C)[C@H](O)[C@@](C)(O)C(=O)[C@@H](C)[C@H](O)[C@@H](C)C(=O)[C@@H](C)[C@H](O)[C@@H](C)/C=C/C(=O)O[C@@H]2[C@H](C)[C@H](CC1)O[C@]1(CC[C@H](C)[C@H](C[C@@H](C)O)O1)[C@H]2C [oligomycin, reference compound]
P-AMPK (T172) [10]: increased
increase of mean lifespan of N2 worms ([3]; 40 μM, from young adult stage): 32.3%
effect on lifespan of adult C. elegans (in words) [3]: extends the lifespan
autophagy (GFP::LGG-1 puncta) ([11]; CeTOR(RNAi) worms, oligomycin): does not augment
autophagy (GFP::LGG-1 puncta) ([11]; L3 epidermis, oligomycin 40, α-KG 8 mM, versus vehicle): significantly higher
phosphorylation of mTOR substrates [12]: decreased
ATP content [8]: decreased
